From patent US20090252704A1, “THERAPIES FOR COGNITION AND LEARNING ENHANCEMENT” (priority 2008, published 2009)

How the values were obtained:
scopolamine treated mice = experiment: step through passive avoidance (STPA) in scopolamine treated mice; format: in vivo, Male C57BL/6 mice
Description: Male C57BL/6 mice weighing 20-25 g (6-8 weeks of age) were maintained in a controlled environment (housed at 5 per cage; at 22-25 C.°; 12/12 light/dark cycle) and allowed to acclimate 2 weeks before initiation of the STPA task. The STPA apparatus consists of a box with two compartments light and dark; each of 20×9.5×16.5 cm^3 (Ugo Basile Rat Passive Avoidance Apparatus, customized for mice with chamber inserts). Mice were transported to the testing facility in covered cages and whilst in training or testing phases were housed at 1 or 2 per cage.
STPA Habituation phase: Mice are placed in the light compartment and latency to enter the dark compartment is recorded. The criteria of success is entrance to the dark compartment within 30 sec twice in three trails or three times in five trials; showing the normal aversion of mice to a highly lit space.
STPA Training phase: In acute drug testing, 2 hrs after habituation is complete; 30 min (t=−30) and 20 min (t=−20) prior to training, scopolamine (or saline) and test drug (or vehicle), respectively, are administered. In the drinking water protocol, at t=−30 prior to training, scopolamine (or saline) is administered. Mice are placed into the light compartment at time zero. Upon entry into the dark compartment, an automatic door closes and 2.0 sec shock (0.5 mA) is delivered through the floor grating. […] The number of trials to reach criterion is recorded for assessment of secondary biomarkers, such as analgesia.
STPA Testing phase: At 24 h and 48 h post training, animals are tested for memory retention without any drug administration. The animals are again placed in the light compartment. Latency to enter the dark side is recorded as a measure of memory consolidation, retention and retrieval.
Scopolamine (1 mg/kg; 1 mg/4 ml) is administered ip. Test compound (1 mg/kg, 1 mg/Kg) administered ip.
Dosing—Behavioral Studies: Drugs and vehicle were administered either i.p. for acute studies (1 mg/kg, or as indicated in the figures, in saline), otherwise in drinking water (20 mg/kg/day).
Drinking water dosing: Rodents drink continuously during the active dark cycle and intermittently during the resting light cycle.

[1] = tested on: animal models of chronic learning and cognition impairment; experiment: animal models of chronic learning and cognition impairment; format: in vivo; conditions: chronic use

Row | SMILES | reversal of cognition deficits, comparison (FIG. 4) (scopolamine treated mice; STPA, scopolamine treated mice) | cognition deficit reversal (FIG. 1, FIG. 2 and FIG. 3) (scopolamine treated mice; in drinking water (20 mg/kg/day), STPA, scopolamine 1 mg/kg ip) | effect on learning and cognition [1] | reversal of cognition deficits, comparison (FIG. 4) (scopolamine treated mice; mouse, in vivo)
1 | Cc1ncsc1CCO[N+](=O)[O-].Cl [GT-1061, 4-methyl-5-(2-nitroxyethyl)thiazole HCl] | reversal of cognition deficits | cognition deficit reversal |  | 
2 | O=[N+]([O-])O[C@H]1CO[C@H]2[C@@H]1OC[C@H]2O[N+](=O)[O-] [ISDN, isosorbide dinitrate] | reversal of cognition deficits |  | enhance learning and cognition | 
3 | Cc1ncsc1CCCl [clomethiazole] |  |  |  | reversal of cognition deficits
